Source: paper PMC12090809 (Journal of Virology, 2025)
Entries after “also recorded” stand apart in the source; their conditions may differ.

How the values were obtained:
SHIV AD8-EO [1] = assay: Plasma viral loads (RT-qPCR) in SHIV AD8-EO-infected RMs during BNM-III-170 treatment; type: in vivo, Macaca mulatta
Method: Next, we evaluated the ability of BNM-III-170 to reduce viral replication in these animals, measuring plasma viral loads (PVLs) at multiple timepoints during and immediately following each BNM-III-170 treatment cycle. PVLs declined by 0.92 logs in animal 14C056 following the 3 × 36 mg/kg, 3-day interval treatment cycle (between 0 h of the first dose and 9 days post third dose). […] Importantly, given the small number of animals and absence of untreated controls, it is difficult to determine if the observed reduction in PVLs in animal 14C056 was due to BNM-III-170 treatment or to the natural course of SHIV AD8 EO-infection. This highlights the need for additional, larger studies that include an untreated control arm to more accurately determine the virologic impact of BNM-III-170 on SHIV in vivo.
Plasma SHIV viral loads (SHIV-RNA copies/mL) were determined as previously described ([61]) using quantitative reverse transcription PCR (RT-qPCR) assays with a limit of detection of 60 copies/mL.

[2] = tested on: SHIV AD8-EO-infected rhesus macaques; assay: Complete blood counts and flow cytometry immunophenotyping of PBMCs in SHIV AD8-EO-infected RMs after BNM-III-170; type: in vivo, Macaca mulatta
Method: In addition to monitoring blood chemistries, complete blood counts (CBCs) were performed immediately prior to BNM-III-170 treatment and at several post-treatment timepoints (Fig. 4A). Significant increases in white blood cell counts (WBCs) were observed between 0 h and 24 h after the terminal dose of each treatment cycle (median WBCs: 7,550 and 12,595, respectively, P-value = 0.0391). This increase in WBCs was largely attributed to increases in neutrophils (median counts at 0 h vs. 24 h of 2,926 and 8,004, P-value = 0.0078) and, to a lesser extent, monocytes (median counts at 0 h vs 24 h after the terminal dose of 696 and 1,537, P-value = 0.0391). […] Of note, this lymphopenia was generally transient (Fig. S5).
To further investigate this observed lymphopenia, multiparameter flow cytometry was performed on PBMCs from 0 h and 24 h post-terminal dose timepoints from all treatment cycles (Fig. S6). […] While the exact cause of this non-specific lymphopenia is unknown, it may be due to depletion of lymphocytes or migration of lymphocytes to tissue; the latter explanation is more consistent with the transient nature of the lymphopenia.
A 20-parameter flow cytometric analysis was performed on fresh PBMCs and mononuclear cells (10^6 cells) derived from LN biopsies using anti-human monoclonal Abs (mAbs), which we ([6], [58][–][60]) and others, including databases maintained by the NHP Reagent Resource (MassBiologics), have shown as being cross-reactive in RMs. […] All samples were fixed with 1% paraformaldehyde and acquired within 24 h of fixation. Acquisition of data was performed on a FACSymphony A5 (BD Biosciences) driven by FACS DiVa software and analyzed with FlowJo (version 10.7; Becton, Dickinson, and Company).

[3] = tested on: SHIV AD8-EO-infected rhesus macaques; assay: Safety of subcutaneous BNM-III-170 dosing regimens in SHIV AD8-EO-infected RMs; type: in vivo, Macaca mulatta; settings: for Blood chemistries / Clinical signs: SHIV AD8-EO-infected RMs, one line per animal; for ALP: normal range 83–363 U/L
SHIV AD8-EO [4] = assay: Viral infectivity / neutralization assay in TZM-bl cells with SHIV variants; settings: virus incubated with BNM-III-170 (Fig. 2A)
Method: The viral neutralization assay was done as previously described ([56]). Briefly, TZM-bl target cells were seeded at a density of 1 × 10^4 cells/well in 96-well luminometer-compatible tissue culture plates (Perkin-Elmer Life Sciences, Waltham, MA) 24 h before infection. Then, 100 µL portions of recombinant viruses was incubated with the indicated amount of mAbs, plasma, BNM-III-170, or a mixture of mAbs and BNM-III-170 for 1 h at 37°C and then added to the target cells. After incubation for 48 h at 37°C, the medium was removed from each well, and the cells were lysed by the addition of 30 µL of passive lysis buffer (Promega) and three freeze-thaw cycles. An LB 941 TriStar luminometer (Berthold Technologies) was used to measure the luciferase activity in each well after the addition of 100 µL of luciferin buffer (15 mM MgSO4, 15 mM KPO4 [pH 7.8], 1 mM ATP, and 1 mM dithiothreitol) and 50 µL of 1 mM D-luciferin potassium salt (Prolume).

[5] = tested on: CEM.NKr-CCR5-sLTR-Luc cells infected with SHIV AD8-EO; type: cell-based
[6] = 36 mg/kg SQ, 2 doses, dosing interval 1 day, 36 mg/kg
[7] = 36 mg/kg SQ, 3 doses, dosing interval 3 days, 36 mg/kg
[8] = animal 14C013 at necropsy, 2 × 36 mg/kg SQ every 24 h

SMILES: CNCc1ccc2c(c1)C[C@H](CN=C(N)N)[C@H]2NC(=O)C(=O)Nc1ccc(Cl)c(F)c1.O=C(O)C(F)(F)F.O=C(O)C(F)(F)F [BNM-III-170]
- decline in plasma viral loads (PVLs) (SHIV AD8-EO [1]; animal 14C056, 3 × 36 mg/kg SQ, 3-day interval, between 0 h of first dose and 9 days post third dose, no untreated controls): 0.92 logs
- change in plasma viral loads (PVLs) (SHIV AD8-EO [1]; animals 14C013, RYj17, 34901, following BNM-III-170 treatments): no similar changes in PVLs were observed
- white blood cell counts (WBCs), median ([2]; 24 h after terminal dose of each treatment cycle, 0 h median 7,550, P-value = 0.0391): 12,595
- monocytes, median counts ([2]; 24 h after terminal dose, 0 h median 696, P-value = 0.0391): 1,537
- neutrophils, median counts ([2]; 24 h after terminal dose, 0 h median 2,926, P-value = 0.0078): 8,004
- absolute numbers of NK cells, median ([2]; 24 h post-terminal dose, 0 h median 191, P = 0.0078): 48 cells per μL blood
- absolute numbers of CD4+ T cells, median ([2]; 24 h post-terminal dose, 0 h median 496, P = 0.0078): 283 cells per μL blood
- absolute numbers of CD8+ T cells, median ([2]; 24 h post-terminal dose, 0 h median 1,084, P = 0.0078): 323.5 cells per μL blood
- absolute numbers of B cells, median ([2]; 24 h post-terminal dose, 0 h median 1,129, P = 0.0391): 1,080 cells per μL blood
- lymphocyte frequency in whole blood ([2]; 24 h post-terminal dose, 49% at 0 h, P = 0.0078): 19.5%
- lymphocyte numbers in whole blood ([2]; 24 h post-terminal dose, 3,774 at 0 h, P = 0.0078): 2,068
- Blood chemistries ([3]; 24 mg/kg SQ, 1 dose, 24 mg/kg): Transient elevation of CPK, troponin I
- Blood chemistries [3, 6]: Elevated AST, ALT, amylase, CPK, troponin I; also recorded: Transient elevation of ALP, CPK, troponin I
- Clinical signs [3, 6]: pale mucus membranes, weak femoral pulses, and dyspnea; also recorded: Animal experienced acute respiratory distress and tachycardia at 6 hr post dose #2 and was sacrificed; inconclusive path report, pale liver noted; also recorded: Enlarged liver and spleen, lesion at BNM-III-170 injection site
- Blood chemistries [3, 7]: Transient elevation of AST, ALT, CPK; also recorded: Elevated BUN, BUN/Cr, CPK; low potassium
- Clinical signs [3, 7]: mild erythema at the BNM-III-170 injection sites; also recorded: Animal reached endpoint criteria (weight loss > 25%) due to chronic diarrhea that started prior to CD4mc treatments, animal sacrificed 3 hr post dose #2
- Blood chemistries ([3]; 36 mg/kg SQ, 3 doses, dosing interval 7 days, 36 mg/kg): Transient elevation of AST, ALP, TRIG, CPK; also recorded: Transient elevation of AST, ALT, ALP, CSK; also recorded: Transient elevation of Glob, ALT, ALP, GGT, AMY, CPK
- adverse reactions ([3]; SHIV-infected RMs 14C056 and 34901, 1 × 24 mg/kg SQ): No adverse reactions were observed
- clinical signs of toxicity ([3]; SHIV-infected RMs, 36 mg/kg SQ doses at 7-day dosing interval): no clinical signs of toxicity were noted
- ALT [3, 8]: 123 U/L
- AST [3, 8]: 145 U/L
- troponin I [3, 8]: 0.28 ng/mL
- amylase ([3]; animal 14C013 at necropsy, 2 × 36 mg/kg SQ every 24 h, normal range 148–316 U/L): 421 U/L
- AST ([3]; animal 14C056, 24 h after dose 3, 36 mg/kg SQ every 3 days): 109 U/L
- troponin I ([3]; animal 34901, 6 h post-dose, 1 × 24 mg/kg SQ, resolved by 5 days post-treatment): 0.090 ng/mL
- potassium ([3]; animal 34901 at necropsy (3 h after dose 2, 36 mg/kg SQ every 3 days), 2.4 vs 2.8 at 0 h of cycle, normal range 3–5 mmol/L): 2.4 mmol/L
- blood urea nitrogen ([3]; animal 34901 at necropsy (3 h after dose 2, 36 mg/kg SQ every 3 days), 34 at 0 h of cycle, normal range 9–27, likely due to prolonged diarrhea): 28 mg/dL
- ratio of blood urea nitrogen to creatinine ([3]; animal 34901 at necropsy (3 h after dose 2, 36 mg/kg SQ every 3 days), 37.8 at 0 h of cycle, normal range 12.5–33.3): 35
- troponin I ([3]; animal RYj17, 6 h after dose 1 of 2 × 36 mg/kg SQ every 24 h, resolved by 24 h): 0.049 ng/mL
- ALP ([3]; animal RYj17, 24 h after dose 2 of 2 × 36 mg/kg SQ every 24 h): 405 U/L
- ALP ([3]; animal RYj17, 16 days later (after 24 h post dose 2), 2 × 36 mg/kg SQ every 24 h): 715 U/L
- effect on SHIV AD8-EO infectivity (SHIV AD8-EO [4]): directly decrease SHIV AD8-EO infectivity
- binding of plasma from PWH to infected cells [5]: enhance binding of plasma from PWH
